Reference: US20070212677A1, “Identifying off-target effects and hidden phenotypes of drugs in human cells” (Odyssey Thera, Inc., priority 2004, published 2007)
Entries after “also recorded” stand apart in the source; their conditions may differ. One block for each compound: values may come before it. Non-standard residues stand in square brackets, D forms with d. Residues, ends and D or L forms follow the SMILES beside them. Nle = CCCC[C@H](N)C(=O)O

Experiments:
[1] = molecular target: beta-Arr2:beta2AR (Homo sapiens, UniProt P07550); assay: beta-Arr2:beta2AR PCA (with or without ISO); assay type: cell-based
[2] = test system: cyclinD1:Cdk4; assay: CyclinD1:Cdk4 PCA; assay type: cell-based, human; settings: eight hours of treatment
[3] = test system: Pin1:Jun; assay: Pin1:Jun PCA; assay type: cell-based, human; settings: for effect on Pin1:Jun assay: statins, FIG. 19B
[4] = molecular target: T1, PPAR-gamma:SRC-1 (Homo sapiens, UniProt P37231); assay: PPAR-gamma:SRC-1 PCA; assay type: cell-based; settings: serum-starved HEK293; for effect on PPAR-gamma:SRC-1 PCA: drug 6.5 hours prior to rosiglitazone 1.5 hours, FIG. 24B, C
T1 sequence (P37231 1-477 isoform P37231-2): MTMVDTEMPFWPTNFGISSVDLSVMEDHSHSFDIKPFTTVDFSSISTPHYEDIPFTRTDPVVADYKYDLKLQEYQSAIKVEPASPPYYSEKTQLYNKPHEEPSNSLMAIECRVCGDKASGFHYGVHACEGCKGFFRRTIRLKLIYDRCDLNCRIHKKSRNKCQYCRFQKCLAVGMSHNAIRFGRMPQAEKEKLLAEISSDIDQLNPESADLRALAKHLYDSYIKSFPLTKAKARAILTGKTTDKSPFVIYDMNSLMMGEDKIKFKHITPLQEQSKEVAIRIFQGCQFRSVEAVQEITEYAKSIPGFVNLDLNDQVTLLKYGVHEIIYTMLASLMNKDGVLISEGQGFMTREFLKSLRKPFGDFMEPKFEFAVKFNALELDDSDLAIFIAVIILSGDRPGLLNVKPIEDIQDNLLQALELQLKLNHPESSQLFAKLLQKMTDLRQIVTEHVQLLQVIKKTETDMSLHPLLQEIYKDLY

[5] = test system: phospho-ERK; assay: phospho-ERK (T202/Y204) immunofluorescence, high-content imaging in HEK293 cells; assay type: cell-based, human; settings: for EGF-stimulated ERK phosphorylation: drug 90 min, hEGF during last 5 min
Experimental: (§1) We assessed the effects of the above-mentioned compounds on the three pathways and used the results to construct pharmacological profiles for the agents. Human cells (HEK293) were treated with drugs and the phosphorylation status of the three downstream proteins was assessed in the absence or presence of epidermal growth factor (EGF). Cells were then fixed and probed with antisera generated against the phosphorylated forms of CREB (S133), ERK1/2 (phospho T*EY*), or phospho Hsp27 (S78/S82). The ERK1/2 antibodies specifically recognize the MAPK/ERK1 and MAPK/ERK2 protein kinases only when they are phosphorylated on Threonine 202 and Tyrosine 204 in the activation loop. […] Changes in the level and sub-cellular localization of a phosphorylated protein following treatment with a drug would indicate a functional connection between the drug and the pathway of interest.
(§2) Details of the methods used are as follows. HEK293T cells were seeded in black-walled, poly-lysine coated 96-well plates (Greiner) at a density of 30,000/well. After 24 hours, cells in duplicate wells were treated with combinations of different drugs and stimulus as follows: (a) 20 micromolar PD98059, micromolar SB203580, or vehicle alone for 90 minutes; and (b) as for (a), but with 100 ng/ml hEGF added to the cells during the last 5 min of drug treatment. The drugs were purchased from Calbiochem and hEGF was from Roche. Four sets of cells treated as described were prepared. The cells were rinsed once with PBS and fixed with 4% formaldehyde for 10 min. The cells were subsequently permeabilized with 0.25% Triton X-100 in PBS and incubated with 3% BSA for 30 min to block non-specific antibody binding. […]
(§3) Images were acquired using a Discovery-1 High Content Imaging System (Molecular Devices). Background fluorescence due to nonspecific binding by the secondary antibody was established with the use of cells that were incubated with BSA/PBS and without primary antibodies. […]

[6] = test system: phospho-Hsp27; assay: phospho-Hsp27 immunofluorescence, high-content imaging in HEK293 cells; assay type: cell-based, human; settings: for EGF-induced Hsp27 phosphorylation: drug 90 min, hEGF during last 5 min
Experimental: as §1, §2, §3

[7] = test system: phospho-CREB; assay: phospho-CREB (Ser133) immunofluorescence, high-content imaging in HEK293 cells; assay type: cell-based, human
Experimental: as §1
Details of the methods used are as follows. HEK293T cells were seeded in black-walled, poly-lysine coated 96-well plates (Greiner) at a density of 30,000/well. […]
as §3

[8] = test system: Akt1:Pdk1; assay: Akt1:Pdk1 PCA; settings: for Akt:Pdk1 complexes: 90 and 480 minutes after treatment
[9] = test system: Akt1:p27; assay: Akt1:p27 PCA; settings: for Akt:p27 complexes: 90 and 480 minutes after treatment
[10] = test system: H-Ras:Raf-1; assay: H-Ras:Raf-1 PCA; assay type: cell-based, human; settings: drug treatment, HEK293
[11] = test system: MAPK1:MKNK1; assay: Mknk1:Mapk1 PCA; settings: 480 minutes; bar 27
[12] = test system: ELK: MAPK1; assay: Elk1:Mapk1 PCA; settings: 480 minutes; FIG. 17 bar 20
[13] = test system: CDKN1A(p21):Cdc2; assay: Cdc2:p21 PCA; settings: statins
[14] = test system: Cofilin:Limk2; assay: Cofilin:Limk2 PCA; settings: drug treatment, HEK293

effect on βArr2:β2AR assay following isoproterenol stimulation ([1]; FIG. 19A, 2 μM ISO 30 min): no effect
Compound: CC(C)C[C@H](NC(=O)c1ccc(NCc2cnc[nH]2)cc1-c1cccc2ccccc12)C(=O)O [GGTI-2133]

Compound: CCCC[C@@H](C=O)NC(=O)[C@H](CC(C)C)NC(=O)[C@H](CC(C)C)NC(C)=O [ALLN] (Ac-Leu-Leu-[Nle]-aldehyde)
cyclinD1:Cdk4 complexes [2]: accumulation of this complex in the nucleus

Compound: CN(CCOc1ccc(C[C@H](Nc2ccccc2C(=O)c2ccccc2)C(=O)O)cc1)c1ccccn1 [GW1929]
effect on Pin1/Jun PCA ([3]; PPARγ ligands, 480 minutes, FIG. 18): strong stimulation; also recorded: had an effect

Compound: COc1cc2ncnc(Nc3cccc(Br)c3)c2cc1OC [PD 153035]
effect on PPAR-gamma:SRC-1 PCA [4]: no appreciable effects

Compound: C[S+]([O-])c1ccc(-c2nc(-c3ccc(F)cc3)c(-c3ccncc3)[nH]2)cc1 (stereo not drawn) [SB203580, 4-(4-fluorophenyl)-2-(4-methylsulfinylphenyl)-5-(4-pyridyl)1H-imidazole]
EGF-stimulated ERK phosphorylation [5]: no effect
EGF-induced Hsp27 phosphorylation [6]: blocked

increase of PPAR-gamma:SRC-1 complex ([4]; drug 10 micromolar 6.5 hours prior to rosiglitazone 1.5 hours, p<0.0001 vs DMSO): 5 fold
effect on PPAR-gamma:SRC-1 PCA [4]: comparable to c-src siRNA
Compound: CC(C)(C)n1nc(-c2ccc(Cl)cc2)c2c(N)ncnc21 [PP2]

Compound: EGF: epidermal growth factor; hEGF from Roche
ERK/MAP kinase phosphorylation ([5]; 100 ng/ml hEGF, 5 min): highly induced
formation of phospho-CREB ([7]; 100 ng/ml hEGF, 5 min): induced
phospho-Hsp27 ([6]; 100 ng/ml hEGF, 5 min): increased

Compound: C=CCNC1=C2C[C@@H](C)C[C@H](OC)[C@H](O)[C@@H](C)/C=C(\C)[C@H](OC(N)=O)[C@@H](OC)/C=C\C=C(/C)C(=O)NC(=CC1=O)C2=O [17-AAG, 17-(allylamino)-17-demethoxygeldanamycin]
Akt:Pdk1 complexes [8]: negatively regulated
Akt:p27 complexes [9]: negatively regulated

Compound: Cc1ccc(S(=O)(=O)/C=C/C#N)cc1 [BAY 11-7082]
HRas:Raf1 complex [10]: inhibited
total Akt:Pdk1 complexes ([8]; HEK293): not
nuclear Akt:p27 complexes ([9]; HEK293): strongly inhibited

activity on adrenergic GPCR assays ([1]; 480 minutes, FIG. 17 bars 3 & 4): no activity
Compound: TRAIL: protein cytokine, a TNF-alpha-family ligand
MAPK1:MKNK1 assay [11]: strongly induced
ELK: MAPK1 assay [12]: strongly induced

Compound: CC(C)c1nc(N(C)S(C)(=O)=O)nc(-c2ccc(F)cc2)c1/C=C/[C@@H](O)C[C@@H](O)CC(=O)O [rosuvastatin]
effect on Pin1:Jun assay [3]: little activity
activity on CDKN1A(p21):Cdc2 assay [13]: activity opposite from the other statins

Compound: CC(C)n1c(/C=C/C(O)CC(O)CC(=O)O)c(-c2ccc(F)cc2)c2ccccc21 (stereo not drawn) [fluvastatin]
effect on Pin1:Jun assay [3]: pronounced inhibitory activity; also recorded: inhibited

effect on PPAR-gamma:SRC-1 PCA [4]: no appreciable effects
Compound: COc1cccc(-c2cc(=O)c3ccccc3o2)c1N [PD98059]
EGF-stimulated ERK phosphorylation [5]: significantly blocked
effect of EGF on phospho-CREB in presence of drug ([7]; 20 micromolar PD98059 90 min, hEGF during last 5 min): reduced
EGF-induced Hsp27 phosphorylation [6]: no effect

effect on PPAR-gamma:SRC-1 PCA [4]: did not mimic
Compound: Nc1ncnc2c1cnn2-c1ccccc1 [PP3]

Compound: indirubin-3′-monoxime
Limk2:cofilin complexes [14]: almost completely eliminated
Akt:Pdk1 complexes [8]: negatively regulated
Akt:p27 complexes [9]: negatively regulated
